The assay addresses T1, T cell α4β7 integrin (Homo sapiens, UniProt P13612+P26010).
T1 construct: Blood samples were obtained from healthy volunteers' blood donation; endogenous in cells; host or cells: CD4-positive T cells in whole blood of healthy human volunteers
T1 sequence (P13612 34-1032): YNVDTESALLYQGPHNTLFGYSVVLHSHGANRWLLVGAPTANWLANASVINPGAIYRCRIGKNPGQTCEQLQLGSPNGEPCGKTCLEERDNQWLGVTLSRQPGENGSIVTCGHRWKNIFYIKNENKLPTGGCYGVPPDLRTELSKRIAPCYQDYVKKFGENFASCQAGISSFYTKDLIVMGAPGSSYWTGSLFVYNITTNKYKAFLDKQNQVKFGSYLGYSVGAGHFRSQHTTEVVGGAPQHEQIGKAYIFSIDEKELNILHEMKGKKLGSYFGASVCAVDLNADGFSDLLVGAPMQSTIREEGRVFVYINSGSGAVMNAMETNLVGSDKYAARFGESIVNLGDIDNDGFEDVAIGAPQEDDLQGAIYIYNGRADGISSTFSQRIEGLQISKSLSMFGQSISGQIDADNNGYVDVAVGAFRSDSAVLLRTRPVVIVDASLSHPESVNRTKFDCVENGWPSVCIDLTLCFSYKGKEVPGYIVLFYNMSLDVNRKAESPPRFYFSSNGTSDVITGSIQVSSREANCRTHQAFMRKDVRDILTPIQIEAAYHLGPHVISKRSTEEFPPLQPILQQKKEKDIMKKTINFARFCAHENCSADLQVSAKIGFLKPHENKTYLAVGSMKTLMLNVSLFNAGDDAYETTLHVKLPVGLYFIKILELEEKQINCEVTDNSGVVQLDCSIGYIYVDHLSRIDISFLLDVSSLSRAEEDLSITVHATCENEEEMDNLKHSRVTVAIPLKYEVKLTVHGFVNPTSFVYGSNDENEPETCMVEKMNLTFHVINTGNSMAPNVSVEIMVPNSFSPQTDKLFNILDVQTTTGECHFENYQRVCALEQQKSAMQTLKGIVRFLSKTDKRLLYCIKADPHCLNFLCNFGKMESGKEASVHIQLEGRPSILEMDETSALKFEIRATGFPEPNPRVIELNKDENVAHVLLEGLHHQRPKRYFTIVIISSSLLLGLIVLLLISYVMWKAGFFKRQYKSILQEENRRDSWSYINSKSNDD
T1 sequence (P26010 20-798): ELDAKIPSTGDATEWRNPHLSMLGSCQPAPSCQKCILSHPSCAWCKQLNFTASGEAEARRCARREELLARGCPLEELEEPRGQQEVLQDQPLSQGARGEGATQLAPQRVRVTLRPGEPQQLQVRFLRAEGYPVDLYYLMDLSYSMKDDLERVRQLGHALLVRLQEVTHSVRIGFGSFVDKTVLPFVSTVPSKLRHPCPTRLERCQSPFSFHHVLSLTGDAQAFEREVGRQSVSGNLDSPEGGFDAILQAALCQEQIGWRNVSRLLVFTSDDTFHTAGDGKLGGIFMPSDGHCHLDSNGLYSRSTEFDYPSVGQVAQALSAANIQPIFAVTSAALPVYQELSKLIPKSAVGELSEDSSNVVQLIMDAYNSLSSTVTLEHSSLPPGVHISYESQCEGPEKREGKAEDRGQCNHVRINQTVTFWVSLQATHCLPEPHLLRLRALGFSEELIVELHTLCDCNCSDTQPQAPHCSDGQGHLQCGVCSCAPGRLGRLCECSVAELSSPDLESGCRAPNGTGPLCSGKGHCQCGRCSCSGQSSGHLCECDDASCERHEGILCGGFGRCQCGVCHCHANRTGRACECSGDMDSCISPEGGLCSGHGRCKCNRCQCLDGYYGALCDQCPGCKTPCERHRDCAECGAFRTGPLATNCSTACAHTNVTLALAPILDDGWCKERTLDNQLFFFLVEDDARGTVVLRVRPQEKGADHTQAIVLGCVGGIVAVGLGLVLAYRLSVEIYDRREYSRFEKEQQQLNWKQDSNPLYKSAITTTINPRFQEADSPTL
In words: Human MAdCAM-1/α4β7 integrin binding inhibitory activity evaluation test in whole human blood. As to conditions: recombinant human MAdCAM-1/Fc, CD4 positive cells, flow cytometry. The class given is cell-based. Here is the method:
Human MAdCAM-1/α4β7 Integrin Binding Inhibitory Activity Evaluation Test in Whole Human Blood
Each test substance was measured in terms of the inhibitory activity of binding of T cell α4β7 integrin and MAdCAM-1 in human whole blood. Blood samples were obtained from healthy volunteers' blood donation.
A 4 mM MnCl2 solution and each of dilutions of various test substances were added to human whole blood, followed by incubation for 10 minutes. Recombinant human MAdCAM-1/Fc (R&D Systems) at 10 μg/mL was added, and each test sample taken in a total amount of 50 μL was incubated for 30 minutes. Then, 950 μL of Lyse/Fix (BD Biosciences) was added to allow hemolysis and fixation to proceed at 37° C. for 10 minutes. After centrifugation for 5 minutes, the supernatant was removed and 600 μL of a RPMI-1640 medium supplemented with 10% inactivated fetal bovine serum (hereinafter referred to as the medium) was added, followed by centrifugation for 5 minutes, removal of the supernatant, and then washing. The test sample was washed again with the medium, and then 2.5 μg/mL Mouse Anti-MAdCAM-1 antibody (Invitrogen) was added, followed by incubation for 30 minutes or more. After the test sample was washed with the medium, 3.4 μg/mL Goat Anti-Mouse IgG H&L, FITC (Abcam) was added, followed by incubation for 30 minutes or more. After the test sample was washed with the medium, 0.15 μg/mL PE Rat Anti-Mouse CD4 (BD Pharmigen) was added, followed by incubation for 30 minutes or more. After the test sample was washed with the medium, a ratio of MAdCAM-1 positive cells to CD4 positive cells was measured by using flow cytometry.
From independent test results using different blood samples of two to three persons, a MAdCAM-1 binding inhibiting rate of each test substance at each of various concentrations was obtained under the setting in which, among wells containing no test substances, a well containing no ligand was scored at 100% inhibition and a well containing ligand was scored at 0% inhibition, and then a concentration IC50 which brought about 50% binding inhibition was calculated.
(In flow cytometry, cells or beads pass a laser one at a time.)

The text below walks through data of patent publication US10562898B2, “Substituted benzenesulfonamides as inhibitors of alpha-4 beta-7 integrin activity” (EA PHARMA CO., LTD., priority 2016, dated 2020).

As a reminder, the IC50 is the point on the concentration scale where inhibition reaches its midpoint. For the compound `Cc1cc(=O)n(-c2ccc(C[C@H](NC(=O)c3cc(F)c(NS(=O)(=O)c4ccc(NC(=O)C(C)(C)C)cc4)cc3F)C(=O)O)cn2)c(=O)n1C` [Compound A45], the IC50 is 1.5 nM.

Take `Cn1ccc(=O)n(-c2ccc(C[C@H](NC(=O)c3cc(F)c(NS(=O)(=O)c4ccc(NC(=O)C(C)(C)C)cc4)cc3F)C(=O)O)cn2)c1=O` [Compound A53]: the IC50 came out at 2.9 nM.

`Cc1cn(C)c(=O)n(-c2ccc(C[C@H](NC(=O)c3cc(F)c(NS(=O)(=O)c4ccc(NC(=O)C(C)(C)C)cc4)cc3F)C(=O)O)cn2)c1=O` [Compound A54]: the IC50 is 2 nM.

Turning to `Cc1cn(C)c(=O)n(-c2ccc(C[C@H](NC(=O)c3cc(F)c(NS(=O)(=O)c4ccc(NC(=O)C5(C(F)(F)F)CC5)cc4)cc3F)C(=O)O)cn2)c1=O` [Compound A56], the IC50 turned out to be 5.4 nM.

As to `Cc1cn(C)c(=O)n(-c2ccc(C[C@H](NC(=O)c3cc(F)c(NS(=O)(=O)c4ccc(NC(=O)C(C)(C)C(F)(F)F)cc4)cc3F)C(=O)O)cn2)c1=O` [Compound A58], the IC50 is 5.1 nM.

Turning to `Cc1cn(C)c(=O)n(-c2ccc(C[C@H](NC(=O)c3cc(F)c(NS(=O)(=O)c4ccc(NC(=O)C(C)(C)CO)cc4)cc3F)C(=O)O)cn2)c1=O` [Compound A63], the IC50 was found to be 4.8 nM.

With `Cn1cc(C(F)(F)F)c(=O)n(-c2ccc(C[C@H](NC(=O)c3cc(F)c(NS(=O)(=O)c4ccc(NC(=O)C(C)(C)C)cc4)cc3F)C(=O)O)cn2)c1=O` [Compound A67], the IC50 came out at 5.7 nM.

Take `CN1CCC(=O)N(c2ccc(C[C@H](NC(=O)c3cc(F)c(NS(=O)(=O)c4ccc(NC(=O)C(C)(C)C)cc4)cc3F)C(=O)O)cn2)C1=O` [Compound A75, (2S)-2-[2,5-difluoro-4-[(4-pivalamidophenyl)sulfonamide]benzamido]-3-[6-(3-methyl-2,6-dioxotetrahydropyrimidin-1(2H)-yl)pyridin-3-yl]propanoic acid]: the IC50 worked out at 5.6 nM.
